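Tested at 5 concentrations; 48 h exposure; 96-well plates; endpoints linearly interpolated, else capped at highest concentration. The concentration for full growth arrest is given as TGI.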
Tests used:
Assay in all cases: NCI anticancer screen, dose series, 48 h
A549 NSCLC = test system: A549 NSCLC
HOP-62 NSCLC = test system: HOP-62 NSCLC
SF-268 CNS = test system: SF-268 CNS
UACC-62 melanoma = test system: UACC-62 melanoma
COLO 205 colon = test system: COLO 205 colon
SK-OV-3 ovarian = test system: SK-OV-3 ovarian
UACC-257 melanoma = test system: UACC-257 melanoma
EKVX NSCLC = test system: EKVX NSCLC
786-0 renal = test system: 786-0 renal
SN12C renal = test system: SN12C renal
SF-295 CNS = test system: SF-295 CNS

Compound	TGI (A549 NSCLC) [µM]	TGI (HOP-62 NSCLC) [µM]	TGI (SF-268 CNS) [µM]	TGI (UACC-62 melanoma) [µM]	TGI (COLO 205 colon) [µM]	TGI (SK-OV-3 ovarian) [µM]	TGI (UACC-257 melanoma) [µM]	TGI (EKVX NSCLC) [µM]	TGI (786-0 renal) [µM]	TGI (SN12C renal) [µM]	TGI (SF-295 CNS) [µM]
CC(C)(C)c1cc2c(O)c(c1)Cc1cc(C(C#N)(Cc3ccc4ccccc4c3)Cc3ccc4ccccc4c3)cc(c1O)Cc1cc(C(C)(C)C)cc(c1O)Cc1cc(C(C#N)(Cc3ccc4ccccc4c3)Cc3ccc4ccccc4c3)cc(c1O)C2	> 100	> 100	> 100	> 100	> 100	> 100	> 100	> 100	> 100	> 100	> 100
CN(CCO)c1nc(N)cc(=O)[nH]1	> 100	> 100	> 100	> 100	> 100	> 100	> 100	> 100	> 100	> 100	> 100
Cc1ccc2c(n1)C(=O)C=CC2=O	41.2	> 58.3	42.7	29.2	4.95	49.5	14.6	15	11.4	29.8	35.7
CCN(CC)CCN1C(=O)c2c(c(-c3ccccc3)c3ccccc3c2-c2ccccc2)C1=O	> 100	> 100	> 100	> 100	> 100	> 100	> 100	> 100	> 100	> 100	> 100
Cc1nn(C(=O)c2ccncc2)c2c1C(c1ccccc1)SC(N)=N2 (stereo unspecified)	> 10	> 10	> 10	> 10	> 10	> 10	> 10	> 10	> 10	> 10	> 10
Cc1ccc(N=N/C(=N/NC(=O)c2cc(Cl)ccc2C(=O)c2ccccc2)c2ccc(N(CCC#N)CCC#N)cc2C)cc1	58.7	> 100	> 100	36.2	27.7	40	39.4	84.7	53.7	87.7	86.9
N#CC(=C1CCCCC1)c1nc2ccccc2o1	> 100	> 100	> 100	> 100	33.7	> 100	> 100	89.4	> 100	> 100	> 100
COc1cc(/C=C2/SC(c3ccccc3)N(c3ccccc3)C2=O)cc(OC)c1OC (stereo unspecified)	> 100	> 100	> 100	> 100	> 100	> 100	> 100	> 100	> 100	> 100	> 100
O=C(Nc1nn(C(=O)c2ccc(Cl)cc2)c(=O)s1)c1ccc(Cl)cc1	> 100	> 100	> 100	> 100	> 100	> 100	> 100	> 100	> 100	> 100	> 100
O=C(Nc1c(C(F)(F)F)cc(-c2ccccc2)[nH]c1=O)N1CCOCC1	> 100	> 100	> 100	> 100	> 100	> 100	> 100	> 100	> 100	> 100	> 100
O=C(/C=C1\C[C@H]2C=Nc3ccccc3C(=O)N2C1)NCCCCNC(=O)/C=C1\C[C@H]2C=Nc3ccccc3C(=O)N2C1	49.1	38.5	25	29	14.8	34.4	27.1	33.7	3.32	11.4	35.4
